# Test results published in PubChem BioAssay (NCI).
# Where “and” joins values, the source holds several entries; their conditions need not be identical. Identical values can stand only once.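 Assay format: 96-well plates, 48-hour exposure. The concentration for 50% growth inhibition is given as GI50. The concentration for full growth arrest is given as TGI.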
# Tests used:
# Assay in all cases: growth of human tumour cells (NCI), 48 h
# OVCAR-5 ovarian = tested on: OVCAR-5 ovarian
# RPMI-8226 leukemia = tested on: RPMI-8226 leukemia
# MDA-MB-435 = tested on: MDA-MB-435
# UACC-62 melanoma = tested on: UACC-62 melanoma
# HCT-116 colon = tested on: HCT-116 colon
# LOX IMVI melanoma = tested on: LOX IMVI melanoma
# SK-MEL-5 melanoma = tested on: SK-MEL-5 melanoma
# BT-549 breast = tested on: BT-549 breast
# HCT-15 colon = tested on: HCT-15 colon
# SK-OV-3 ovarian = tested on: SK-OV-3 ovarian
SMILES,GI50 (OVCAR-5 ovarian),TGI (OVCAR-5 ovarian),GI50 (RPMI-8226 leukemia),TGI (RPMI-8226 leukemia),GI50 (MDA-MB-435),TGI (MDA-MB-435),GI50 (UACC-62 melanoma),TGI (UACC-62 melanoma),GI50 (HCT-116 colon),TGI (HCT-116 colon),GI50 (LOX IMVI melanoma),TGI (LOX IMVI melanoma),GI50 (SK-MEL-5 melanoma),TGI (SK-MEL-5 melanoma),GI50 (BT-549 breast),TGI (BT-549 breast),GI50 (HCT-15 colon),TGI (HCT-15 colon),GI50 (SK-OV-3 ovarian),TGI (SK-OV-3 ovarian)
CN1CCN(CCC=C2c3ccccc3Sc3ccc(S(=O)(=O)N(C)C)cc32)CC1,10.9 µM and 14.8 µM,38.8 µM and 30 µM,2.33 µM and 2.6 µM,6.55 µM and 8.62 µM,1.89 µM and 2.08 µM,4.28 µM and 5.82 µM,1.66 µM and 1.76 µM,3.21 µM and 3.48 µM,3 µM and 3.35 µM,> 100 µM and 23.8 µM,1.7 µM and 2.79 µM,3.7 µM and 8.66 µM,1.58 µM,2.95 µM and 3.02 µM,8.06 µM and 13 µM,23 µM and 29.2 µM,3.3 µM and 2.52 µM,> 100 µM and 10.3 µM,9.22 µM and 13.6 µM,24.7 µM and 30.7 µM
O=C(Nc1cccc(-n2cc(-c3ccncc3)c(-c3ccc(Cl)c(O)c3)n2)c1)Nc1ccc(Cl)c(Cl)c1,2.4 µM,> 32.5 µM,1.03 µM,> 32.5 µM,1.1 µM,6.05 µM,1.11 µM,5.21 µM,1.19 µM,5.73 µM,0.939 µM,3.57 µM,0.57 µM,1.16 µM,1.7 µM,16.1 µM,1.23 µM,29.6 µM,1.2 µM,> 32.5 µM
CC[C@@]1(O)C(=O)OCc2c1cc1n(c2=O)Cc2c-1nc1cc(F)c(C)c3c1c2[C@@H](NC(=O)CO)CC3,0.115 µM,–,0.0721 µM,1.67 µM,0.0612 µM,3.05 µM,< 0.01 µM,0.117 µM,< 0.01 µM,> 100 µM,< 0.01 µM,0.0314 µM,< 0.0109 µM,0.119 µM,< 0.0118 µM,0.73 µM,0.247 µM,> 100 µM,0.0173 µM,4.96 µM
Cc1cc(-c2cc(OC(=O)c3ccccc3)ccc2Cl)cc2nnc(Nc3ccc(OCCN4CCCC4)cc3)nc12,1.5 µM,2.84 µM,1.6 µM,3.63 µM,1.62 µM,3.02 µM,1.71 µM,3.36 µM,1.59 µM,3.16 µM,1.45 µM,2.95 µM,1.52 µM,2.89 µM,2.67 µM,6.68 µM,0.197 µM,0.393 µM,1.58 µM,3.09 µM
c1ccc(CC(Nc2cccnc2)c2ccccc2)cc1 (stereo unspecified),–,98.8 µM,–,56.5 µM,–,64.4 µM,–,36.9 µM,–,30.1 µM,–,31.9 µM,–,29.4 µM,–,65.6 µM,–,> 100 µM,–,> 100 µM
Cc1cnc(-c2ccc(-c3ccc(NC(=O)Nc4c(F)cc(F)cc4F)cc3F)c3c2C(=O)NC3)[nH]1,1.61 µM and 1.56 µM,13.2 µM and 12.6 µM,1.02 µM and 0.715 µM,6.02 µM and > 33 µM,0.483 µM,4.29 µM,0.14 µM and 0.223 µM,2.1 µM and 2.39 µM,0.307 µM and 1.03 µM,2.8 µM and 2.71 µM,0.0973 µM and 0.386 µM,4.22 µM and 14.5 µM,0.852 µM and 2.09 µM,9.16 µM and 14.1 µM,1.19 µM and 1.69 µM,19.2 µM and 16.1 µM,1.82 µM and 0.948 µM,> 100 µM,1.42 µM and 3.59 µM,18.3 µM and 23.3 µM
COc1cc(C)[nH]c(=O)c1CNC(=O)c1c(C)n([C@H](C)C2CCN(CC(F)(F)F)CC2)c2ccccc12,> 100 µM,> 100 µM,32.5 µM,> 100 µM,46 µM,> 100 µM,32.5 µM,> 100 µM,59.3 µM,> 100 µM,41.6 µM,> 100 µM,19 µM,54.4 µM,33.6 µM,> 100 µM,44 µM,> 100 µM,51.8 µM,> 100 µM
COc1cc(C2CC(c3cccc(Nc4ccnc5cc(Cl)ccc45)c3)=NN2c2ccccc2)cc(OC)c1OC (stereo unspecified),> 100 µM,> 100 µM,5.33 µM,> 100 µM,1.47 µM,14.2 µM,0.869 µM,> 100 µM,6.51 µM,> 100 µM,2.3 µM,> 100 µM,4.56 µM,23.8 µM,13.9 µM,> 100 µM,2.91 µM,> 100 µM,> 100 µM,> 100 µM
CC(=O)N[C@@H](Cc1ccc(OP(=O)(O)O)cc1)C(=O)N[C@H]1CCC(=O)N2CCC[C@@H](C(=O)NC3CCc4ccccc43)N2C1=O (stereo partly specified),> 25 µM,> 25 µM,> 25 µM,> 25 µM,> 25 µM,> 25 µM,> 25 µM,> 25 µM,> 25 µM,> 25 µM,> 25 µM,> 25 µM,> 25 µM,> 25 µM,> 25 µM,> 25 µM,> 25 µM,> 25 µM,> 25 µM,> 25 µM
COc1cc2c(cc1-c1coc3cc(O)ccc3c1=O)OCO2,–,> 100 µM,–,77.5 µM,–,> 100 µM,–,63.9 µM,–,37.1 µM,–,> 100 µM,–,> 100 µM,–,41.2 µM,–,35.6 µM,–,37.3 µM
CC(=O)ON=C1C=CC(=C(C#N)c2ccccc2)C=C1,3.22 µM,9.28 µM,0.428 µM,2.94 µM,0.283 µM,2.28 µM,3.78 µM,25.7 µM,0.283 µM,11.5 µM,0.393 µM,5.58 µM,2.36 µM,17.7 µM,3.9 µM,12.5 µM,0.97 µM,14.2 µM,6.41 µM,> 100 µM
Cc1cc(C)c2c(c1)N(C)c1ncnc(-n3cnc4cc(C)ccc43)c1CC2C (stereo unspecified),5.52 µM,24.4 µM,2.59 µM,9.08 µM,2.44 µM,10.6 µM,3.13 µM,18.4 µM,3.08 µM,14.6 µM,4.82 µM,33.4 µM,2.24 µM,5.34 µM,2.93 µM,12 µM,3.58 µM,36.3 µM,4.41 µM,> 100 µM
COC(=O)Nc1nc2ccc(C(=O)c3ccc(F)cc3)cc2[nH]1,2.45 µM,> 100 µM,0.434 µM,–,0.0335 µM,0.155 µM,0.199 µM,17.8 µM,0.146 µM,> 100 µM,0.762 µM,> 100 µM,0.242 µM,> 24.2 µM,2.44 µM,> 100 µM,0.0909 µM,> 100 µM,0.51 µM,11.2 µM
CO/C(=C1/NC(=O)C(Cc2ccc(O)c(Br)c2)N(C)C(=O)C(C)NC(=O)CCC/C=C(\C)CCC(C)OC1=O)c1ccccc1 (stereo unspecified),0.0445 µM,> 35 µM,< 0.0155 µM,0.0607 µM,0.0385 µM,13.3 µM,0.0753 µM,20.4 µM,< 0.0146 µM,–,0.0159 µM,0.653 µM,0.0327 µM,0.387 µM,0.0368 µM,0.105 µM,0.0632 µM,13.4 µM,0.0245 µM,0.0662 µM
Cn1c(=O)c(Oc2ccc(F)cc2F)cc2cnc(NCC(C)(C)O)nc21,> 25 µM,> 25 µM,> 25 µM,> 25 µM,> 25 µM,> 25 µM,> 25 µM,> 25 µM,> 25 µM,> 25 µM,> 25 µM,> 25 µM,> 25 µM,> 25 µM,> 25 µM,> 25 µM,> 25 µM,> 25 µM,> 25 µM,> 25 µM
COc1cc2c(cc1OCCCN1CCN(C(=S)SCCC(C#N)(c3ccccc3)c3ccccc3)CC1)N=C[C@@H]1CCCN1C2=O,1.14 µM,2.44 µM,0.42 µM,–,0.555 µM,2.94 µM,1.13 µM,2.38 µM,0.388 µM,1.56 µM,0.721 µM,2.03 µM,1.31 µM,2.75 µM,1.07 µM,3.79 µM,1.68 µM,3.48 µM,2.52 µM,6.39 µM
